In article PMC5515971, “Utility of spherical human liver microtissues for prediction of clinical drug-induced liver injury” (Archives of Toxicology, 2017):
Like-named read-outs stand apart in the source and are kept apart here.

Tests used:
[1] = test system: 3D human liver microtissues (hLiMT); assay: Cytotoxicity (cellular ATP) in 3D human liver microtissues, 5-6 days treatment; assay type: cell-based; conditions: read-out: IC50 SHORT;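 further: Hanging-drop spheroids, seven-point dilution series, re-dosed on day 3, CellTiter-Glo 2.0 luminescence, normalized to 0.5 or 1% DMSO vehicle controls on the same plate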
[2] = cited from earlier work
[3] = test system: 3D human liver microtissues (hLiMT); assay: Cytotoxicity (cellular ATP, CellTiter-Glo 2.0) in 3D human liver microtissues, 14 day repeat-dose treatment
[4] = test system: primary human hepatocytes (PHH); assay: Cytotoxicity (cellular ATP, CellTiter-Glo) in 2D plated primary human hepatocytes, 48 h treatment; assay type: cell-based; conditions: for IC50: read-out: Geomean IC50;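 on all read-outs here: 384-well plates, luminescence read-out, normalized to vehicle wells with 1% DMSO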
Description: Cryopreserved PHH (lot IZT) were thawed in InVitroGro HT™ thawing media at 37 °C, pelleted, and resuspended. Viable hepatocytes were counted by Trypan blue exclusion and plated in black-walled, BioCoat™ collagen 384-well plates at 13,000 cells/well in InVitroGro CP™ plating media supplemented with 1% Torpedo™ Antibiotic Mix and 5% fetal bovine serum and incubated overnight for 18 h. Cells were then treated with compounds for 48 h diluted in InVitroGro HI™ incubation media containing 1% Torpedo Antibiotic Mix, 10% fetal bovine serum, and 1% DMSO. […] Luminescence was determined on an EnVision™ Muliplate Reader (PerkinElmer, Waltham, MA, USA), and data were normalized to vehicle (1% DMSO) control wells.

[5] = cited from earlier work; for DILI category: clinical, from literature and product labels
[6] = ref Chen et al 2016 / Chen et al 2011; cited from earlier work
[7] = human Cmax total, used for IC50/Cmax
[8] = human total plasma Cmax, ref literature values
[9] = read-out: Geomean IC50, decrease in total cellular ATP content, hLiMT treated for 14 days, hepatocyte lot IZT (except Dexamethasone) co-cultured with NPCs, n=1 or geometric mean
[10] = 2D primary human hepatocytes (lot IZT), 48 h treatment, total cellular ATP content
[11] = Homo sapiens, hLiMT, 5/6 days, ATP content
[12] = Homo sapiens, 336 h, read-out: IC50 LONG
[13] = Homo sapiens, Hepatocyte, 336 h, read-out: Geomean IC50 [µM]
[14] = Hepatocyte, 2D primary human hepatocytes (lot IZT), 48 h treatment, total cellular ATP content
[15] = Table 1, ref Garside et al. (2014)
[16] = clinical DILI severity category, 1-5
[17] = table S-4, ref Garside et al. 2014

| SMILES | Cmax [2, 7] [µM] | Cmax [2, 8] [µM] | IC50 [1, 11] [µM] | IC50 [3, 13] [µM] | IC50 [4, 14] [µM] | DILI severity category [5, 15] | DILI severity category [5, 16] | DILI category ([5]; ref Garside et al. 2014) | FDA DILI Classification DILI severity score [6] | LTKB DILI classification [6] | also measured |
| --- | --- | --- | --- | --- | --- | --- | --- | --- | --- | --- | --- |
| C[C@]12CC[C@@H]3c4ccc(O)cc4CC[C@H]3[C@@H]1CC[C@@H]2O [beta-Estradiol] | 0.0006 | 0.0006 | – | – | – | – | – | – | – | – | IC50 ([1]; hLiMT, 5/6 days, ATP content): 42 µM; IC50 [3, 9]: 13.5 µM; IC50 [4, 10]: > 100 µM |
| CCN(CC)CCCC(C)Nc1c2ccc(Cl)cc2nc2ccc(OC)cc12 (centres unmarked) [Quinacrine] | – | 258 | 3.7 | > 2 | 7.3 | – | – | – | – | – | IC50 [3, 12]: 2 µM |
| CC1(C)S[C@@H]2[C@H](NC(=O)COc3ccccc3)C(=O)N2[C@H]1C(=O)O [Penicillin V] | 14.3 | 14.3 | 100 | > 100 | > 100 | – | – | – | – | – | – |
| COc1ccc2c(c1)c(CC(=O)O)c(C)n2C(=O)c1ccc(Cl)cc1 [Indomethacin] | 8.4 | 8.38 | 100 | > 100 | > 100 | – | – | – | – | – | – |
| [H]/N=C(/N)N/C(=N/[H])NCCc1ccccc1 [Phenformin] | 0.63 | 0.63 | 7.7 | < 12.5 | 5.1 | 3: Low clinical DILI concern (N = 23) | 3. Low Clinical DILI Concern | 3. Low Clinical DILI Concern | – | – | DILI severity category [5, 17]: 3; IC50 [3, 12]: 12.5 µM |
| CC(C)c1c(C(=O)Nc2ccccc2)c(-c2ccccc2)c(-c2ccc(F)cc2)n1CC[C@@H](O)C[C@@H](O)CC(=O)O [Atorvastatin] | – | – | 70.7 | 6 | – | – | – | – | – | – | – |
| CN1C[C@H](CNC(=O)OCc2ccccc2)C[C@@H]2c3cccc4c3c(cn4C)C[C@H]21 [Metergoline] | 0.07 | 0.07 | 12.3 | 7.8 | 20.1 | – | – | – | – | – | classification at 100 μM IC50 threshold ([3]; hLiMT 14 days): false positives; classification at 100 μM IC50 threshold ([4]; PHH 48 h): false positives |
| Cc1cc2c(cc1CC(=O)c1sccc1S(=O)(=O)Nc1onc(C)c1Cl)OCO2 [Sitax(s)entan] | 28.6 | 28.6 | – | – | – | 1: Severe clinical DILI (N = 23) | 1. Severe Clinical DILI | 1. Severe Clinical DILI | 8 | most DILI concern | IC50 [3, 9]: 249 µM; IC50 [4, 10]: > 500 µM; cytotoxicity IC50 detected ([4]; PHH 48 h, in words): no IC50 values were detected |
| CS(=O)(=O)CCNCc1ccc(-c2ccc3ncnc(Nc4ccc(OCc5cccc(F)c5)c(Cl)c4)c3c2)o1 [Lapatinib] | 19 | 19 | – | ~27.3 | 33.3 | 1: Severe clinical DILI (N = 23) | 1. Severe Clinical DILI | 1. Severe Clinical DILI | 8 | most DILI concern | – |
| Cc1cnc(NC(=O)C2=C(O)c3ccccc3S(=O)(=O)N2C)s1 [Meloxicam] | 5.21 | 5.21 | 100 | > 100 | > 100 | – | – | – | – | – | – |
| CCOC(=O)CN[C@@H](C(=O)N1CC[C@H]1C(=O)NCc1ccc(/C(N)=N\O)cc1)C1CCCCC1 [Ximelagatran] | 0.45 | 0.45 | 200 | ~151 | > 200 | – | – | – | – | – | IC50 ([3]; Homo sapiens, 336 h, read-out: IC50 (ATP-assay)): 121 µM; IC50 [3, 12]: 151 µM |
| CCN(CC)CCNC(=O)c1c(C)[nH]c(/C=C2\C(=O)Nc3ccc(F)cc32)c1C [Sunitinib] | – | 70.8 | – | ~2 | 13.3 | 1: Severe clinical DILI (N = 23) | 1. Severe Clinical DILI | 1. Severe Clinical DILI | 8 | most DILI concern | – |
| O=c1[nH]c2ccccc2n1C1CCN(CCCC(c2ccc(F)cc2)c2ccc(F)cc2)CC1 [Pimozide] | 0.11 | 0.11 | – | > 6 | 17.6 | 3: Low clinical DILI concern (N = 23) | 3. Low Clinical DILI Concern | 3. Low Clinical DILI Concern | 0 | no DILI concern | – |
| Cn1c(=O)c2[nH]cnc2n(C)c1=O [Theophylline] | – | – | – | > 100 | – | – | – | – | – | – | IC50 ([1]; Homo sapiens): 100 µM; Cmax ([2]; human, in vivo): 83.8 µM; IC50 ([4]; Homo sapiens, Hepatocyte, 48 h): > 100 µM |
| CC(c1cc2ccccc2s1)N(O)C(N)=O (centres unmarked) [Zileuton] | 13.1 | 13.1 | – | > 100 | > 100 | 2: High clinical DILI concern (N = 23) | 2. High Clinical DILI Concern | 2. High Clinical DILI Concern | 5 | most DILI concern | – |
| CCC(C)n1ncn(-c2ccc(N3CCN(c4ccc(OCC5COC(Cn6cncn6)(c6ccc(Cl)cc6Cl)O5)cc4)CC3)cc2)c1=O (centres unmarked) [Itraconazole] | 2.8 | 2.83 | – | 1.6 | > 25 | 2: High clinical DILI concern (N = 23) | 2. High Clinical DILI Concern | 2. High Clinical DILI Concern | 8 | most DILI concern | – |
| CCc1ccc(CCOc2ccc(CC3SC(=O)NC3=O)cc2)nc1 (centres unmarked) [Pioglizatone, Pioglitazone] | 2.95 | 2.95 | – | > 15.6 | > 125 | 3: Low clinical DILI concern (N = 23) | 3. Low Clinical DILI Concern | 3. Low Clinical DILI Concern | 3 | less DILI concern | – |
| NC(=O)N1c2ccccc2C=Cc2ccccc21 [Carbamazepine] | 50.8 | 50.8 | – | 267 | > 500 | 2: High clinical DILI concern (N = 23) | 2. High Clinical DILI Concern | 2. High Clinical DILI Concern | 7 | most DILI concern | – |
| COc1ccc2cc([C@H](C)C(=O)O)ccc2c1 [Naproxen] | – | – | 100 | – | – | – | – | – | – | – | – |
| CCc1oc2ccccc2c1C(=O)c1cc(Br)c(O)c(Br)c1 [Benzbromarone] | 23.6 | 23.6 | – | 11.8 | 171 | 1: Severe clinical DILI (N = 23) | 1. Severe Clinical DILI | 1. Severe Clinical DILI | 8 | most DILI concern | – |
| CN(C)CCC=C1c2ccccc2CCc2ccccc21 [Amitriptyline] | 0.721 | 0.72 | – | 18.8 | 41.8 | 3: Low clinical DILI concern (N = 23) | 3. Low Clinical DILI Concern | 3. Low Clinical DILI Concern | 5 | less DILI concern | – |
| O=C1[C@H](CC[C@H](O)c2ccc(F)cc2)[C@@H](c2ccc(O)cc2)N1c1ccc(F)cc1 [Ezetimibe] | – | – | 45.6 | – | – | – | – | – | – | – | DILI severity category [5, 17]: 3; IC50 [3, 12]: 45.5 µM |
